Reference: ChEMBL document CHEMBL5634160, “Synthesis, biological evaluation and action mechanism of 7H-[1,2,4] triazolo [3,4-b] [1,3,4] thiadiazine-phenylhydrazone derivatives as α-glucosidase inhibitors” (Eur J Med Chem, 2023)

Target: Alpha-glucosidase (Saccharomyces cerevisiae S288c, UniProt P53341+P38158+P07265)
Assay: Inhibition of Saccharomyces cerevisiae alpha-glucosidase using nitrophenol-alpha-D-glucopyranoside (pNPG) as substrate incubated for 15 mins
Assay type: protein assay

## Oc1ccc(/C=N/Nc2nnc3n2N=C(c2ccccc2)CS3)c(O)c1
  IC50: 32.96 µM

## COc1ccccc1/C=N/Nc1nnc2n1N=C(c1ccccc1)CS2
  IC50: 114.9 µM

## Oc1cccc(/C=N/Nc2nnc3n2N=C(c2ccccc2)CS3)c1
  IC50: 135.7 µM

## Brc1ccccc1/C=N/Nc1nnc2n1N=C(c1ccccc1)CS2
  IC50: 32.12 µM
